Experimental data from patent publication US5153226A, “Acat inhibitors for treating hypocholesterolemia” (Warner-Lambert Company, priority 1990, dated 1992).

Experiments:
[1] = target: T1, acyl-CoA:cholesterol acyltransferase (ACAT) (Oryctolagus cuniculus, UniProt G1SFD9); experiment: in vitro ACAT inhibition, acylation of cholesterol by oleic acid in tissue preparation containing rabbit intestinal microsomes; type: biochemical; details: concentration required to inhibit 50% expression of the enzyme
T1 construct: tissue preparation containing rabbit intestinal microsomes; from tissue; host or cells: rabbit intestinal microsomes
T1 sequence (G1SFD9 1-524): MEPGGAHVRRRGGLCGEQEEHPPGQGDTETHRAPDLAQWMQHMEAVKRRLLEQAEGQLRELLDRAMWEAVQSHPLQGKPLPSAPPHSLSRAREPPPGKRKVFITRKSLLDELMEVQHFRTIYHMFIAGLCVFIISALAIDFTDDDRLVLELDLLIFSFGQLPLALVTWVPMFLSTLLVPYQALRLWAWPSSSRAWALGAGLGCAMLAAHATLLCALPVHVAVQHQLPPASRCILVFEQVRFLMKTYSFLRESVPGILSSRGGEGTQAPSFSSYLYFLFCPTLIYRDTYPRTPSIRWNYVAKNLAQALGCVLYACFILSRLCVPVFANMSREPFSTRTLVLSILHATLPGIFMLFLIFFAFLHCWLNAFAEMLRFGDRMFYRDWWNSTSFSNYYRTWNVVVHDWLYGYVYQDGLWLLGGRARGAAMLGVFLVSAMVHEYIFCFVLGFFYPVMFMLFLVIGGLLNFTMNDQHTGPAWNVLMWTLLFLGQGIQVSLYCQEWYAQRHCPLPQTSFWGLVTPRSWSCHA
Method: The ability of representative compounds of the present invention to inhibit ACAT was measured using an in vitro test more fully described in Field, F. J. and Salone, R. G., Biochemica et Biophysica 712: 557-570 (1982). The test assesses the ability of a test compound to inhibit the acylation of cholesterol by oleic acid by measuring the amount of radio-labeled cholesterol oleate formed from radiolabeled oleic acid in a tissue preparation containing rabbit intestinal microsomes.
The data appear in Table 1 where they are expressed as IC50 values; i.e. the concentration of test compound required to inhibit 50% […] of the enzyme.

[2] = test system: cholesterol; experiment: in vivo screen APCC, cholesterol in rats fed PCC diet with cholic acid; set-up: species or system male Sprague-Dawley rats; details: APCC rats dosed at 4 PM, PCC diet with 1% or 0.5% cholic acid overnight, blood cholesterol at 8 AM; dose not given
From the text: In one in vivo screen, designated APCC, male Sprague-Dawley rats (200 to 225 g) were randomly divided into treatment groups and dosed at 4 PM with either vehicle (CMC/Tween) or suspensions of compounds in vehicle. The normal, chow diet was then replaced with the PCC diet (RR 740-02122) with either 1% or 0.5% cholic acid, as indicated. The rats consumed this diet ad libitum during the night and were sacrificed at 8 AM to obtain blood samples for cholesterol analysis using standard procedures (RR 740-02122). Statistical differences between mean cholesterol values for the same vehicle were determined using analysis of variance followed by Fisher's least significant test.

SMILES | IC50 [1] | % Change (mg/dl) [2]
CC(C)c1cccc(C(C)C)c1NC(=O)[C@H](Cc1ccccc1)NC(=O)OC(C)(C)C [Example 41, (S)-α-N-(2,6-Diisopropylphenyl)benzenepropanamide] | 350 nM | 
CC(C)c1cccc(C(C)C)c1NC(=O)CN(CC1(c2ccccc2)CCCC1)C(=S)Nc1ccccc1 [Example 10, N-[2,6-bis(1-Methylethyl)phenyl]-2-[[(phenylamino)thioxomethyl][(1-phenylcyclopentyl)methyl]amino]acetamide] | 100 nM | -30%
CC(C)c1cccc(C(C)C)c1NC(=O)CNC(c1ccccc1)c1ccccc1 [Example 4, N-[2,6-bis(1-Methylethyl)phenyl]-2-[(diphenylmethyl)amino]acetamide] | 55 nM | -45%
Cc1ccc(S(=O)(=O)N[C@@H](Cc2ccccc2)C(=O)Nc2c(C(C)C)cccc2C(C)C)cc1 [Example 52, (S)-N-[2,6-bis(1-Methylethyl)phenyl]-α-[[(4-methylphenyl)sulfonyl]amino]benzenepropanamide] | 960 nM | 
Cc1ccc(S(=O)(=O)N(CC(=O)Nc2c(C(C)C)cccc2C(C)C)CC2(c3ccccc3)CCCC2)cc1 [Example 14, N-[2,6-bis(1-Methylethyl)phenyl]-2-[[(4-methylphenyl)sulfonyl][(1-phenylcyclopentyl)methyl]amino]acetamide] |  | -24%
CC(C)c1cccc(C(C)C)c1NC(=O)CN(CC1(c2ccccc2)CCCC1)C(=O)Nc1ccccc1 [Example 11, N-(2,6-bis(1-Methylethyl)phenyl]-2-[[(phenylamino)carbonyl][(1-phenylcyclopentyl)methyl]amino]-acetamide] |  | -3%
CC(C)c1cccc(C(C)C)c1NC(=O)[C@H](Cc1ccc(O)cc1)NC(=O)OC(C)(C)C [Example 21, (S)-1,1-Dimethylethyl[2-[[2,6-bis-(1-methylethyl)phenyl]amino]-1-[(4-hydroxyphenyl)-methyl]-2-oxoethyl]carbamate] | 1050 nM | 
